Here are results for 7 compounds from patent US5756536A, “Microbial transformation of taxol and cephalomannine” (Purdue Research Foundation, priority 1996, dated 1998).

≈ marks a conversion by molar mass, not a printed value. Where two headings read alike, the source gives them in different places.

For series [1], the system named is tubulin. As to conditions: cited from earlier work.
A further series deals with A-549. In words: In vitro antitumor cytotoxicity, MTT microculture assay, A-549. The series is classed as cell-based. As to conditions: Homo sapiens, A549, 144 h. As for the experimental part: (§1) The in vitro antitumor activity cytotoxicity was measured by a microculture assay using 3-(4,5-dimethylthiazol-2-yl)-2,5-diphenyl-tetrazolium bromide (MTT). This assay has an advantage over in vivo assay in that results are obtained within a week as opposed to several months. The assay was done in 96-well microtiter plates. The MTT assay is based on the transformation into a dark blue formazan product by dehydrogenase in the mitochondria of live tumor cells after exposure to drug for 6 days [M. C. Alley, D. A. Scudiero, A. Monks, M. L. Hursey, M. J. Czerwinski, D. L. Fine, B. J. Abbott, J. G. Mayo, R. H. Shoemaker and M. R. Boyd, Cancer Res., 48, 589, 1988.] Thus, only live cells are stained and can be measured at 570 nm. Antitumor cytotoxicity is reported as GI50, effect drug dose at which cell growth is retarded to 50% of control culture of tumor cells. The active compounds must have GI50 values that are less then 10^-4 M or 10 μg/ml.
(§2) Antitumor Cytotoxicity of Taxanes
(§3) Against Human Tumor Cell Lines

The next series deals with HT-29. Kind of series: In vitro antitumor cytotoxicity, MTT microculture assay, HT-29. The series is classed as cell-based. As to conditions: Homo sapiens. As for the experimental part:
as §1, §2, §3
HT29: colon adenocarcinoma
On the technique in general: Tetrazolium dyes change colour on reduction, which living cells bring about.

Another series relates to MCF-7. In words: In vitro antitumor cytotoxicity, MTT microculture assay, MCF-7. It counts as cell-based. As to conditions: Homo sapiens, MCF7, 144 h. The method, then:
as §1, §2, §3
MCF7: breast adenocarcinoma

The conditions of series [2]: cited from earlier work.
Series [3] deals with tubulin. In words: FAT tubulin polymerization assay. The series is classed as biochemical.
Series [4] deals with drug-refractory ovarian cancer. As to conditions: in vivo; cited from earlier work.
[5] abbreviates: A-549 lung carcinoma, drug exposure 6 days, MTT, 570 nm, read-out: GI50.
Setting [6] is: 144 h, HT-29 colon adenocarcinoma, drug exposure 6 days, MTT, 570 nm, read-out: GI50.
[7] abbreviates: MCF-7 breast adenocarcinoma, drug exposure 6 days, MTT, 570 nm, read-out: GI50.

For the compound `CC[C@]1(O)C[C@@H]2CN(CCc3c([nH]c4ccccc34)[C@@](C(=O)OC)(c3cc4c(cc3OC)N(C)[C@H]3[C@@](O)(C(=O)OC)[C@H](OC(C)=O)[C@]5(CC)C=CCN6CC[C@]43[C@@H]65)C2)C1` [vinblastine], the “effect on microtubule / tubulin polymer formation” value with tubulin [1] is “prevent microtubule formation”.

As to `CC(=O)O[C@H]1C(=O)[C@@]2(C)[C@H]([C@H](OC(=O)c3ccccc3)[C@]3(O)C[C@H](OC(=O)[C@H](O)[C@@H](NC(=O)c4ccc(O)cc4)c4ccccc4)C(C)=C1C3(C)C)[C@]1(OC(C)=O)CO[C@@H]1C[C@@H]2O` [L-760,006], the GI50 in the series on A-549 (setting [5]) was 0.04 ng/mL (≈ 0.046 nM); with HT-29 (setting [6]) it was 0.08 ng/mL (≈ 0.092 nM); in the series with MCF-7 (setting [7]), 0.01 ng/mL (≈ 0.0115 nM).

For the compound `C/C=C(\C)C(=O)N[C@@H](c1ccccc1)[C@@H](O)C(=O)O[C@H]1C[C@@]2(O)[C@@H](OC(=O)c3ccccc3)[C@@H]3[C@]4(OC(C)=O)CO[C@@H]4C[C@H](O)[C@@]3(C)C(=O)[C@H](OC(C)=O)C(=C1C)C2(C)C` [Caphalomannine, cephalomannine], the GI50 in the series on A-549 was 0.1 ng/mL (≈ 0.12 nM); with HT-29 (HT-29, 144 h), 0.2 ng/mL (≈ 0.24 nM); in the series with MCF-7, 0.8 ng/mL (≈ 0.962 nM).

Turning to `CC[C@]1(O)C[C@H]2CN(CCc3c([nH]c4ccccc34)[C@@](C(=O)OC)(c3cc4c(cc3OC)N(C=O)[C@H]3[C@@](O)(C(=O)OC)[C@H](OC(C)=O)[C@]5(CC)C=CCN6CC[C@]43[C@@H]65)C2)C1` [vineristine], the “effect on microtubule / tubulin polymer formation” value in the series on tubulin [1] is listed as “prevent microtubule formation”.

Consider `CC(=O)O[C@@]12CO[C@@H]1C[C@H](O)[C@@]1(C)C(=O)[C@H](OC(=O)CO)C3=C(C)[C@@H](OC(=O)[C@H](O)[C@@H](NC(=O)c4ccccc4)c4ccccc4)C[C@@](O)([C@@H](OC(=O)c4ccccc4)[C@H]21)C3(C)C` [L-760,007, 10-hydroxyacetyl taxol], for which the GI50 with A-549 (setting [5]) was less than 0.01 ng/mL; in the series with HT-29 (setting [6]) it was 0.01 ng/mL (≈ 0.0115 nM); in the series on MCF-7 (setting [7]) it was 0.04 ng/mL (≈ 0.046 nM).

In the case of `CC(=O)O[C@H]1C(=O)[C@@]2(C)[C@H]([C@H](OC(=O)c3ccccc3)[C@]3(O)C[C@H](OC(=O)[C@H](O)[C@@H](NC(=O)/C(C)=C/CO)c4ccccc4)C(C)=C1C3(C)C)[C@]1(OC(C)=O)CO[C@@H]1C[C@@H]2O` [L-745,596], the GI50 was determined as 30 ng/mL (≈ 35.4 nM) in the series with A-549 (setting [5]), 20 ng/mL (≈ 23.6 nM) with HT-29 (setting [6]) and 50 ng/mL (≈ 59 nM) in the series on MCF-7 (setting [7]).

As to `CC(=O)O[C@H]1C(=O)[C@@]2(C)[C@H]([C@H](OC(=O)c3ccccc3)[C@]3(O)C[C@H](OC(=O)[C@H](O)[C@@H](NC(=O)c4ccccc4)c4ccccc4)C(C)=C1C3(C)C)[C@]1(OC(C)=O)CO[C@@H]1C[C@@H]2O` [Taxol], the GI50 in the series with A-549 (setting [5]) is 0.0004 ng/mL (≈ 0.000468 nM); in the series on HT-29 (setting [6]), 0.0001 ng/mL (≈ 0.000117 nM); with MCF-7 (setting [7]), 0.002 ng/mL (≈ 0.00234 nM). For the same compound, the “toxic effects in phase 1 clinical trials” value in series [2] was “did not show excessive toxic effects”. Further, the “effect on microtubule / tubulin polymer formation” value with tubulin [1] is reported as “promotes formation of microtubules”. Also, the “IC50 in the FAT tubulin polymerization assay” value with tubulin [3] was determined as 17 ng/mL (≈ 19.9 nM). In series [4], the “activity against drug-refractory ovarian cancer” value is “active agent against drug-refractory ovarian cancer”.

For orientation: GI50 means the concentration that inhibits growth by half.
